A short description of series [1]: Half life in rat liver microsomes measured up to 60 mins in presence of NADPH by LC-MS/MS analysis. Type of series: ADME, Microsome.
Series [2] is described as follows: AUC (0 to 24 hrs) in rat at 1 mg/kg, iv. Conditions: in vivo. It counts as ADME, organism-based. Also on record: time < 24 hr, route intravenous, dose 1 mg/kg.
The nature of series [3]: Total clearance in rat at 1 mg/kg, iv. Type of series: ADME, organism-based. To be noted: in vivo.
The nature of series [4]: Oral bioavailability in rat at 10 mg/kg. It counts as ADME, organism-based. Conditions: in vivo.
Series [5] can be described thus: Half life in rat at 1 mg/kg, iv. Type of series: ADME, organism-based. To be noted: in vivo.
The nature of series [6]: Half life in rat at 3 mg/kg, po. It counts as ADME, organism-based. To be noted: in vivo.
Series [7] can be described thus: Permeability of compound by PAMPA assay. Type of series: ADME. Conditions: read-out: permeability.
Series [8] in a line: AUC (0 to 24 hrs) in rat at 10 mg/kg, po. It counts as ADME, organism-based. On the set-up: time < 24 hr, route oral, dose 10 mg/kg. To be noted: in vivo.
Series [9] is described as follows: Volume of distribution in rat at 1 mg/kg, iv. Type of series: ADME, organism-based. Conditions: in vivo, read-out: Vdss.
Series [10] is described as follows: Tmax in rat at 10 mg/kg, po. Type of series: ADME, organism-based. To be noted: in vivo.
Series [11] in a line: Tmax in rat at 3 mg/kg, po. It counts as ADME, organism-based. To be noted: in vivo.
The nature of series [12]: Cmax in rat at 3 mg/kg, po. It counts as ADME, organism-based. On the set-up: route oral, dose 3 mg/kg. To be noted: in vivo.
The nature of series [13]: AUC (0 to 24 hrs) in rat at 3 mg/kg, po. Type of series: ADME, organism-based. On the set-up: time < 24 hr, route oral, dose 3 mg/kg. Conditions: in vivo.
Series [14] can be described thus: Half life in rat at 10 mg/kg, po. Type of series: ADME, organism-based. Conditions: in vivo.
Series [15] can be described thus: Oral bioavailability in rat at 3 mg/kg. Type of series: ADME, organism-based. Conditions: in vivo.

Results on two molecules are retold here after ChEMBL document CHEMBL4840347, “Design, synthesis, and biological evaluation of novel somatostatin receptor subtype-2 agonists: Optimization for potency and risk mitigation of hERG and phospholipidosis” (Bioorg Med Chem, 2021).

Molecules are shown by their SMILES.

Turning to `COc1cc(OC)cc(-c2cncc(-c3nc4cc(C)ccc4[nH]3)c2N2CCC(N)CC2)c1`, the half-life is over 3.33 h in series [1], 5.8 h in [5], 6.5 h in [6] and 6.5 h in series [14]. Besides, the AUC came to 686 ng·h/mL in series [2] (24 h) and 291 ng·h/mL in [8]. Moreover, in series [3], the clearance came out at 25.1 mL/min/kg. In series [4], this molecule yielded an F of 42%. For the same molecule, in [7], the Papp came out at 0.71 ×10⁻⁶ cm/s. The Vd in [9] was 8.23 L/kg. Also, the Tmax in series [10] and in [11] was 0.5 h each time. The molecule also displayed a Cmax in series [12] of 56.6 ng/mL. This molecule registered an AUC(0-t) at 24 h in series [13] of 291 ng·h/mL.

On to `Cc1cc(C(=O)Nc2cncc(-c3cc(Cl)cc(Cl)c3)c2N2CCC(N)CC2)n(C)n1`, for which the values for the half-life in series [1], in series [5] and in [6] were over 3.33 h, 6.1 h and 5.6 h, respectively. Further, the exposure AUC(0-t) at 24 h in [2] was determined as 264 ng·h/mL; in series [13] it was 271 ng·h/mL. Further, in [3], the clearance amounted to 60.7 mL/min/kg. Besides, the Papp in series [7] turned out to be 41 ×10⁻⁶ cm/s. Further, the Vd in series [9] was found to be 23.2 L/kg. For the same molecule, in series [11], the Tmax worked out at 2.3 h. For the same molecule, the peak level in series [12] (Cmax) was 32.1 ng/mL. Moreover, the bioavailability in series [15] turned out to be 35.5%.
